Source: patent publication US9340580B2, “Peptide with multiple epitopes” (priority 2007, dated 2016)
Several values for one entry are separate records, joined by “and”; a condition that tells them apart may be missing. Equal values may be shown once. Where a SMILES comes first, the peptide text is derived from it.

Assays:
[1] = solubility pre-screen in an aqueous, acidic milieu; assay type: physicochemical
[2] = precipitation in the aqueous solution of the binding assay; assay type: physicochemical; conditions: read-out: Precipitation in assay: lowest concentration at which an insoluble white precipitate is seen
Source text: (§1) This is a characteristic of promiscuous HLA-DRB1* binders.

[3] = biological target: DRB1*1101 (Homo sapiens, UniProt P01903+P01911, A100R/A169T/A87E/I96F/K41T/L162R/M171V/P40S/Q125H/Q178H/Q39Y/Q99D/R42S/S66Y/T262R/V115G/W38E); test: competitive MHC class II binding assay; conditions: control peptide Influenza haemagglutinin 307-319
Source text: as §1

[4] = biological target: DRB1*0701 (Homo sapiens, UniProt P01903+P01911, A100R/A102G/A103Q/D57E/D86V/E43K/F76Y/K127E/L162R/M171V/P40G/Q125H/Q99D/R33Q/R42Y/R54Q/S133A/S66F/T210M/V115G/Y107V/Y59L/Y89S); test: competitive MHC class II binding assay; conditions: control peptide Influenza haemagglutinin 307-319
Source text: as §1

[5] = biological target: DQA1*0102/DQB1*0602 (Homo sapiens, UniProt P01909+P01920, A157G/A45G/C70R/E118A/E183D/E77G/F83G/G63E/H151Q/H199R/H252R/H253Q/I129T/I235V/I88M/INS77G/K197Q/L117V/L119F/L178F/L71W/L74F/L85Q/L91A/L98M/N214S/P87R/Q116E/Q76K/R102G/R240Q/R75S/R78G/S102Y/S185I/S41F/S97I/T121G/T122I/T172A/T86R/V229M/V68A/V73E/Y34C/Y41F/Y58L); test: competitive MHC class II binding assay; conditions: control peptide Human Insulin B 1-15
Description: as §1
In addition, to identify lower affinity binders, the assay was also carried out under less stringent conditions. All the Der p binding peptides were seen to have a high ratio when tested against this allotype, showing they were low affinity binders compared to the control peptide. The DQA1*0102/DQB1*0602 binding assay uses a peptide from the B-chain of human insulin which is of lower affinity compared to those used in the DR assays. This dictates that the DQ assay is very sensitive and tends to produce very low ratio values for the strongest binders to this MHC Class II allotype. This sensitivity also accounts for the relatively higher number of DQ binding peptides within the panel screened. Finally, on closer analysis, the peptides identified as ligands for the DRB1*0101,*0401, *0701 superfamily, are found to incorporate a motif that is characteristic of promiscuous binders to this family of allotypes where: P1=Y, F, W, L, I, V, or M (Large aromatic or hydrophobic residue), P6=S, T, C, A, P, V, I, M (small, non-charged residue)

[6] = biological target: DRB1*0401 (Homo sapiens, UniProt P01903+P01911, A100K/A169T/F76Y/I96L/K127E/L162R/M171V/N62H/P40V/Q125Y/R42H/S133A/S149N/S66Y/V115G/V209L/W38E); test: competitive MHC class II binding assay; conditions: control peptide Influenza haemagglutinin 307-319
Source text: as §1

CSCC[C@H](NC(=O)[C@H](CO)NC(=O)[C@@H](N)C(C)C)C(=O)N[C@@H](CCC(=O)O)C(=O)N[C@@H](Cc1ccc(O)cc1)C(=O)N[C@@H](CC(=O)O)C(=O)N[C@@H](CC(C)C)C(=O)N[C@@H](C)C(=O)N[C@@H](Cc1ccc(O)cc1)C(=O)N[C@@H](CCCCN)C(=O)N[C@@H](CC(C)C)C(=O)NCC(=O)N[C@@H](CC(=O)O)C(=O)N[C@@H](CC(C)C)C(=O)N[C@@H](Cc1c[nH]cn1)C(=O)O [HDM40A] (H-VSMEYDLAYKLGDLH-OH; N-terminus and C-terminus assumed)
Solubility test [1]: YES
solubility [2]: 1000 µM and 1800 µg/mL
relative binding: ratio of peptide IC50 to control peptide IC50, DRB1*1101 [3]: 6
relative binding: ratio of peptide IC50 to control peptide IC50, DRB1*0701 [4]: 2.29

CSCC[C@H](NC(=O)[C@H](CO)NC(=O)[C@@H](NC(=O)[C@@H](NC(=O)[C@H](CC(=O)O)NC(=O)[C@H](CC(=O)O)NC(=O)[C@@H](N)Cc1c[nH]cn1)C(C)C)C(C)C)C(=O)N[C@@H](CCC(=O)O)C(=O)N[C@@H](Cc1ccc(O)cc1)C(=O)N[C@@H](CC(=O)O)C(=O)N[C@@H](CC(C)C)C(=O)N[C@@H](C)C(=O)N[C@@H](Cc1ccc(O)cc1)C(=O)N[C@@H](CCCCN)C(=O)N[C@@H](CC(C)C)C(=O)O [HDM39A] (H-HDDVVSMEYDLAYKL-OH; N-terminus and C-terminus assumed)
Solubility test [1]: YES
solubility [2]: 1000 µM and 1800 µg/mL
relative binding: ratio of peptide IC50 to control peptide IC50, DQA1*0102 DQB1*0602 [5]: 0.1
relative binding: ratio of peptide IC50 to control peptide IC50, DRB1*0401 [6]: 76.19
relative binding: ratio of peptide IC50 to control peptide IC50, DRB1*0701 [4]: 0.71
